The structures appear in SMILES notation.

Results on 13 molecules are retold here after US10040791B2, “Isoxazole derivative as mutant isocitrate dehydrogenase 1 inhibitor” (Daiichi Sankyo Company, Limited, priority 2014, dated 2018).

For assay [1], the system named is HT-1080 cells expressing IDH1R132C. The assay is described as follows: 2-HG production inhibitory activity using HT1080 cell. In kind it is cell-based, human. The conditions noted are these: Homo sapiens, HT-1080; 2-HG production, HT1080 cells; read-out: Test Example 3 IC50. The procedure:
Then, 100 μL of growth medium B was added to each well, further 25 μL of a solution of each compound diluted to a predetermined concentration with growth medium B was added to each well, and the cells were incubated at 37° C. for 2 days under 5% CO2. […] Then, 150 μL of ultrapure water was further added to each well, and the mixture was stirred by pipetting and stored at −20° C.
The preserved solutions were thawed at room temperature.

The target of another assay is IDH1R132C (Homo sapiens (Human), UniProt O75874, R132C). As to the kind of experiment: Inhibitory activity against IDH1R132C enzyme (NADPH detection, WST-8). It counts as biochemical. To be noted: 10 nM, residual NADPH detected with WST-8, read-out: Test Example 1 IDH1 R132C IC50. The procedure:
After transformation of Rosetta 2 (DE3) E. coli, the expression of the protein was induced with IPTG.
While NADPH-derived fluorescence was occasionally monitored, the reaction was terminated by the addition of 5 μL of 0.5 M EDTA before consumption of NADPH. 5 μL of WST-8 reagent (Dojindo Laboratories, #CK04) was further added and mixed therewith. 15 minutes later, the absorbance at 450 nm was measured using a plate reader (PerkinElmer, Inc., EnVision). The observed absorbance value reflects the amount of residual NADPH. From the absorbance data, the enzyme inhibitory activity of each compound at each concentration was calculated and analyzed using medical statistical analysis software GraphPad Prism to calculate an IC50 value.
In general terms: Formazan colour is commonly taken as a measure of viable cells.

Chain of IDH1R132C (O75874 whole entry R132C): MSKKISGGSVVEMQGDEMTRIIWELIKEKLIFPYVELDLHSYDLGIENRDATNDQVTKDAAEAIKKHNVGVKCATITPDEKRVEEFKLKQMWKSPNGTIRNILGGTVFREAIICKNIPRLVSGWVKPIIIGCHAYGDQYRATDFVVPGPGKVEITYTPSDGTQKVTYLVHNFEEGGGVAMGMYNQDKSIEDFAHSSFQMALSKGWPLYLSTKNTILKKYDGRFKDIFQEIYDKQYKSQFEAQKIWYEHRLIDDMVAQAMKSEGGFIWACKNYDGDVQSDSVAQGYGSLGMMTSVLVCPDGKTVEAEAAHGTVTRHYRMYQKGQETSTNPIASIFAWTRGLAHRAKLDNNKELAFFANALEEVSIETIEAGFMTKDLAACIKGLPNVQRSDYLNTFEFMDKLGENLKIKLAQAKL

For orientation: IC50 means the concentration that gives 50% inhibition. Take `CC(C)(C)c1onc(-c2c(Cl)cccc2Cl)c1C(=O)n1ccc2c(/C=C/C(=O)O)cccc21` [Example 24, (2E)-3-(1-{[5-(tert-Butyl)-3-(2,6-dichlorophenyl)-1,2-oxazol-4-yl]carbonyl}-1H-indol-4-yl)prop-2-enoic acid]: the IC50 in assay [1] was 255 nM; on IDH1R132C, 182 nM.

As to `C=CC(=O)N1CCC(c2onc(-c3c(Cl)cc(Cl)cc3Cl)c2C(=O)n2cc(C)c3c(/C=C/C(=O)O)cccc32)(N(C)C)CC1` [Example 126], the IC50 in assay [1] was 8 nM; on IDH1R132C, 149 nM. For `Cc1cn(C(=O)c2c(-c3c(Cl)cccc3Cl)noc2C(C)C)c2cccc(/C=C/C(=O)O)c12` [Example 25, (2E)-3-(1-{[3-(2,6-Dichlorophenyl)-5-(propan-2-yl)-1,2-oxazol-4-yl]carbonyl}-3-methyl-1H-indol-4-yl)prop-2-enoic acid], in that order: 248 nM and 326 nM.

Turning to `C=CC(=O)N1CC2(CC2)N(c2onc(-c3c(F)cccc3Cl)c2C(=O)n2cc(C)c3c(/C=C/C(=O)O)cccc32)C[C@H]1C` [Example 162, (2E)-3-[1-({5-[(6R)7-Acryloyl-6-methyl-4,7-diazaspiro[2.5]oct-4-yl]-3-(2-chloro-6-fluorophenyl)-1,2-oxazol-4-yl}carbonyl)-3-methyl-1H-indol-4-yl]prop-2-enoic acid], the IC50 in assay [1] was found to be 253 nM; on IDH1R132C, 95 nM. For `O=C(O)/C=C/c1cccc2c1ccn2C(=O)c1c(-c2c(Cl)cccc2Cl)noc1N1CCCC1` [Example 135, (2E)-3-(1-{[3-(2,6-Dichlorophenyl)-5-(pyrrolidin-1-yl)-1,2-oxazol-4-yl]carbonyl}-1H-indol-4-yl)prop-2-enoic acid], in that order: 376 nM and 122 nM. Consider `C=CC(=O)N1CC(C)(c2onc(-c3c(Cl)cc(Cl)cc3Cl)c2C(=O)n2ccc3c(/C=C/C(=O)O)cccc32)C1` [Example 98], for which the values for the IC50 (in assay [1]; on IDH1R132C) were 34 nM and 116 nM, respectively. Regarding `Cc1cn(C(=O)c2c(-c3ccc(Cl)c(F)c3Cl)noc2C(C)(C)F)c2cccc(/C=C/C(=O)O)c12` [Example 17], the IC50 in assay [1] was found to be 242 nM; at IDH1R132C, 201 nM.

`Cc1cc(Cl)cc(Cl)c1-c1noc(C(C)(C)C)c1C(=O)n1ccc2c(/C=C/C(=O)O)cccc21` [Example 41, (2E)-3-(1-{[5-(tert-Butyl)-3-(2,4-dichloro-6-methylphenyl)-1,2-oxazol-4-yl]carbonyl}-1H-indol-4-yl)prop-2-enoic acid]: the figures for the IC50 (in assay [1]; on IDH1R132C) were 254 nM and 280 nM, respectively.

Take `C=CC(=O)N1CC2C(C1)C2c1onc(-c2c(Cl)cc(Cl)cc2Cl)c1C(=O)n1cc(C)c2c(/C=C/C(=O)O)cccc21` (centres unmarked) [Example 124]: the results for the IC50 (in assay [1]; on IDH1R132C) were 22 nM and 125 nM, respectively. For `CC(C)(C)c1onc(-c2c(Cl)cc(Cl)cc2Cl)c1C(=O)N1CCc2c(/C=C/C(=O)O)cccc21` [Example 32, (2E)-3-(1-{[5-(tert-Butyl)-3-(2,4,6-trichlorophenyl)-1,2-oxazol-4-yl]carbonyl}-2,3-dihydro-1H-indol-4-yl)prop-2-enoic acid], in that order: 413 nM and 176 nM.

For the molecule `NC[C@@H]1CCN(c2onc(-c3c(Cl)cccc3Cl)c2C(=O)n2ccc3c(/C=C/C(=O)O)cccc32)C1` [Example 140], on IDH1R132C, the half-inhibitory concentration (IC50) was 1040 nM. `CCC1(c2onc(-c3c(Cl)cccc3Cl)c2C(=O)n2ccc3c(/C=C/C(=O)O)cccc32)COC1` [Example 5, (2E)-3-(1-{[3-(2,6-Dichlorophenyl)-5-(3-ethyloxetan-3-yl)-1,2-oxazol-4-yl]carbonyl}-1H-indol-4-yl)prop-2-enoic acid]: the IC50 in assay [1] is 42 nM. As to `NC[C@H]1CCN(c2onc(-c3c(Cl)cccc3Cl)c2C(=O)n2ccc3c(/C=C/C(=O)O)cccc32)C1` [Example 139, (2E)-3-[1-({5-[(3R)-3-(Aminomethyl)pyrrolidin-1-yl]-3-(2,6-dichlorophenyl)-1,2-oxazol-4-yl}carbonyl)-1H-indol-4-yl]prop-2-enoic acid], the IC50 in assay [1] amounted to 339 nM.
